Among the data in PMC12040169 (PLOS Biology, 2025) are viability values, retold here.

As usually defined, the viability is a read-out of living cells in per cent, often relative to untreated cells.

SMILES strings stand for the structures.

A short description of one data set: in vitro. The conditions noted are these: human, hela cells, % viability.
As to `COc1cc2c(cc1OC)CN(C(=O)Cc1ccccc1)CC2` [CBK122751], the viability at 28.5 h, 10 µM worked out at 90.7%.
Regarding `COc1ccc(Cn2c(=O)[nH]n(-c3ccccc3)c2=O)cc1F` [CBK122772], the viability at 28.5 h, 10 µM worked out at 86.5%.
Regarding `C[C@H](NC1=NC(=O)C2(CCN(Cc3ccccc3)CC2)O1)c1ccccc1` [CBK122798T], the viability at 28.5 h, 10 µM was 88.6%.
The same measure, in the same setting: the value for `CCCOc1ccc(O)cc1` [CBK122802] was 97.8%; that for `COC(=O)CCc1ccc(-c2cnc(N)c(-c3ccc(O)cc3)n2)cc1` [CBK122809] was 88.9%; that for `O=S(=O)(c1ccc(-c2cncc(-c3ccc(O)cc3)n2)cc1)N1CCOCC1` [CBK123786] was 84.6%.
For `OCc1ccc(-c2cncc(-c3ccc(O)cc3)n2)cc1` [CBK123792], the viability at 28.5 h, 10 µM came to 91.4%.
Same read-out and setting: the value for `CC(=O)Nc1cccc(-c2cncc(-c3ccc(O)cc3)n2)c1` [CBK123795] was 77.8%.
Regarding `O=C(c1cccc(-c2cncc(-c3ccc(O)cc3)n2)c1)N1CCOCC1` [CBK123796], the viability at 28.5 h, 10 µM was 100%.
As for `CC(C)OC(=O)c1cc2c(ccn2-c2ccc(F)cc2)n1CCC#N` [CBK123921], the viability at 28.5 h, 10 µM worked out at 95%.
For the molecule `CCC1(CC)OC(N[C@@H](C)c2ccc3ccccc3c2)=NC1=O` [CBK123982], the viability at 28.5 h, 10 µM came to 90.2%.
Take `CCC1(CC)OC(NC[C@@H](C)c2ccccc2)=NC1=O` [CBK123983]: the viability at 28.5 h, 10 µM came to 116%.
With `Nc1ncc(-c2ccc(C(=O)N3CCOCC3)cc2)nc1-c1cccnc1` [CBK126356], the viability at 28.5 h, 10 µM came out at 106%.
For `Nc1ncc(-c2ccc(C(=O)N3CCOCC3)cc2)nc1-c1ccc(C[C@H](N)C(=O)O)cc1` [CBK126364], the viability at 28.5 h, 10 µM turned out to be 97%.
On to `Nc1ncc(-c2ccc(C(=O)N3CCOCC3)cc2)nc1-c1ccc(CCC(=O)O)cc1` [CBK126368], for which the viability at 28.5 h, 10 µM came out at 97.3%.
On the same count and under the same terms, the value for `CC(C)(O)C1(C)OC(NC2C3CC4CC(C3)CC2C4)=NC1=O` (stereo not shown) [CBK126370] was 91.2%; that for `N#Cc1cccc(CN2CCC(Cc3ccccc3)CC2)c1` [CBK126380] was 87.1%.
Take `c1ccc(CC2CCN(CCc3c[nH]c4ccccc34)CC2)cc1` [CBK126385]: the viability at 28.5 h, 10 µM was determined as 94.9%.
As to `O=S(=O)(CCN1CCC(Cc2ccccc2)CC1)c1ccccc1` [CBK126386], the viability at 28.5 h, 10 µM is 94.9%.
In the case of `O=C(CN1CCC(Cc2ccccc2)CC1)Nc1ccc(F)c(Cl)c1` [CBK126387], the viability at 28.5 h, 10 µM stood at 92.4%.
As for `c1ccc(CC2CCN(CCC(c3ccccc3)c3ccccc3)CC2)cc1` [CBK126389], the viability at 28.5 h, 10 µM stood at 102%.
Consider `COc1cc2c(cc1OC)CN(CC(N)=O)CC2` [CBK126391], for which the viability at 28.5 h, 10 µM was determined as 86.8%.
Take `Clc1ccc(CN2CCc3ccccc3C2)cc1Cl` [CBK126395]: the viability at 28.5 h, 10 µM came out at 103%.
Turning to `c1ccc2c(c1)CCN(Cc1nc3ccccc3[nH]1)C2` [CBK126396], the viability at 28.5 h, 10 µM came to 92.2%.
In the case of `c1ccc2c(c1)CCN(Cc1ccc3ccccc3c1)C2` [CBK126397], the viability at 28.5 h, 10 µM was found to be 122%.
On to `c1ccc2c(c1)CCN(Cc1ncc[nH]1)C2` [CBK126402], for which the viability at 28.5 h, 10 µM is 94.7%.
Turning to `COc1ccc(OCCN2CCc3ccccc3C2)cc1` [CBK126403], the viability at 28.5 h, 10 µM was determined as 94.8%.
Consider `c1ccc(C(CCN2CCc3ccccc3C2)c2ccccc2)cc1` [CBK126404], for which the viability at 28.5 h, 10 µM came to 99.1%.
As for `COc1ccc(Cl)cc1N1CCN(CC(=O)Nc2ccc(F)c(Cl)c2)CC1` [CBK126417], the viability at 28.5 h, 10 µM is 101%.
Take `COc1ccc(Cl)cc1N1CCN(Cc2ncc[nH]2)CC1` [CBK126418]: the viability at 28.5 h, 10 µM is 98.1%.
Still for that read-out and setting: the value for `Clc1ccc(CN2CCN(CCc3ccccc3)CC2)cc1Cl` [CBK126420] was 96.3%; that for `c1ccc(CCN2CCN(Cc3cccnc3)CC2)cc1` [CBK126424] was 103%; that for `c1ccc(CCN2CCN(CCC(c3ccccc3)c3ccccc3)CC2)cc1` [CBK126432] was 85.4%.
On the same count and under the same terms, the value for `c1ccc(CC2CCN(CCOc3ccccc3)CC2)cc1` [CBK126433] was 107%; that for `c1ccc(CCN2CCC(Cc3ccccc3)CC2)cc1` [CBK126434] was 96.3%.
Take `COc1cccc(CN2CCC(Cc3ccccc3)CC2)c1` [CBK126436]: the viability at 28.5 h, 10 µM amounted to 103%.
Same read-out and setting: the value for `COc1cc2c(cc1OC)CN(CCN1CCCCC1)CC2` [CBK126439] was 101%; that for `COc1cccc(CN2CCc3cc(OC)c(OC)cc3C2)c1` [CBK126441] was 102%; that for `CN(C)C(=O)CN1CCN(CCc2ccccc2)CC1` [CBK126455] was 98.8%.
As for `CCOC(=O)CN(Cc1ccccc1)Cc1ccc(OC)cc1` [CBK126460], the viability at 28.5 h, 10 µM came to 103%.
For `COc1cc(Nc2cncc(-c3ccc(O)cc3)n2)c(Cl)cc1C(=O)NCC1CCCO1` (stereo not shown) [CBK126468], the viability at 28.5 h, 10 µM is 100%.
Consider `COc1cc(Nc2cncc(-c3ccc(O)cc3)n2)c(Cl)cc1C(=O)NCC(F)(F)F` [CBK126470], for which the viability at 28.5 h, 10 µM is 82.9%.
With `COCCCn1c(N)c(C(=O)NCC(C)C)c2nc3ccccc3nc21` [CBK126495], the viability at 28.5 h, 10 µM stood at 84.9%.
For the molecule `COc1cc(CNC(=O)c2cccc(-c3ccc(OC4CCNCC4)cc3)n2)cc(OC)c1OC` [CBK126550T], the viability at 28.5 h, 10 µM is 87.1%.
With `CCN(CC)c1ccc(NC(=O)c2cc(-c3cccnc3)cnc2NCCN2CCOCC2)cc1` [CBK126566], the viability at 28.5 h, 10 µM came to 105%.
For `c1ccc2c(-c3ccc(OC4CCNCC4)cc3)cncc2c1` [CBK126578], the viability at 28.5 h, 10 µM is 112%.
In the case of `CS(=O)(=O)N1CC2(CCN(Cc3ccc(OC(F)(F)F)cc3)CC2)c2ccccc21` [CBK126668], the viability at 28.5 h, 10 µM is 99.4%.
On to `CS(=O)(=O)N1CC2(CCN(Cc3cccc(C(F)(F)F)c3)CC2)c2ccccc21` [CBK126670], for which the viability at 28.5 h, 10 µM was 96.8%.
Same read-out and setting: the value for `CS(=O)(=O)N1CC2(CCN(Cc3nc4ccccc4[nH]3)CC2)c2ccccc21` [CBK126672] was 89.2%.
`CS(=O)(=O)N1CC2(CCN(CCO)CC2)c2ccccc21` [CBK126677]: the viability at 28.5 h, 10 µM came to 94.5%.
Regarding `CS(=O)(=O)N1CC2(CCN(CC(N)=O)CC2)c2ccccc21` [CBK126678], the viability at 28.5 h, 10 µM is 81.5%.
Turning to `CS(=O)(=O)N1CC2(CCN(Cc3ncc[nH]3)CC2)c2ccccc21` [CBK126680], the viability at 28.5 h, 10 µM is 98.8%.
On to `CCNC(=O)N1CC2(CCN(Cc3nc4ccccc4[nH]3)CC2)c2ccccc21` [CBK126693], for which the viability at 28.5 h, 10 µM is 98%.
On to `CCNC(=O)N1CC2(CCN(CCS(=O)(=O)c3ccccc3)CC2)c2ccccc21` [CBK126698], for which the viability at 28.5 h, 10 µM amounted to 90.9%.
Take `CC(C)C(=O)N1CC2(CCN(Cc3cccc(C(F)(F)F)c3)CC2)c2ccccc21` [CBK126716]: the viability at 28.5 h, 10 µM came out at 102%.
On to `CC(C)C(=O)N1CC2(CCN(CCc3c[nH]c4ccccc34)CC2)c2ccccc21` [CBK126725], for which the viability at 28.5 h, 10 µM was 95.6%.
`CC(C)C(=O)N1CC2(CCN(CCS(=O)(=O)c3ccccc3)CC2)c2ccccc21` [CBK126726]: the viability at 28.5 h, 10 µM is 95.4%.

Still in this data set, the particulars now being: human, hela cells, % viability, bulk resorufin, single well.
Take `COc1ccc(Cl)cc1N1CCN(Cc2c(F)cccc2F)CC1` [CBK126410]: the viability at 28.5 h, 10 µM amounted to 90.9%.
